According to patent publication US20240076667A1, “APPLICATION OF ANTISENSE OLIGONUCLEOTIDE TARGETING PBX1 PROMOTER REGION G-QUADRUPLEX IN PREPARATION OF MEDICINE FOR TREATING MELANOMA” (JILIN UNIVERSITY, priority 2022, published 2024):

How the values were obtained:
rG1 = assay: Thermal stability of PBX1 rG1 with G4-specific ligands; assay type: binding
A375 melanoma cells = assay: In vivo tumor growth experiment, A375 xenograft in nude mice
Procedure: In vivo tumor growth experiment: to evaluate the effect of PBX1 on growth of in vivo tumors, before inoculation, male nude mice of 6 weeks (BALB/C background) are randomly divided into designated groups (5 per group). 1×10^6 A375 melanoma cells are injected subcutaneously into the upper flank of the back of each mouse. After injection, the mice are administered with PDS drug for treatment for 21 days (once every two days), and after the mice are sacrificed, the tumor weight is measured.
(§1) Bioluminescent tumor cell tracking: in vivo whole-animal imaging, anesthetized mice are injected intraperitoneally with 3 mg of d-luciferin (MCE, USA). Luminescence data is collected on an IVIS system (Perkin Elmer, USA). For live tissue imaging, tissues are perfused with PBS, harvested, and incubated in PBS with 1 μg/ml-1d-luciferin. Data analysis is performed using an IVIS Image software package.

PBX1 rG1 = assay: EGFP reporter gene system, confocal fluorescence; assay type: cell-based; conditions: HEK293T cells; 2 μM PDS or 5 μM TMPyP4
Procedure: Construction of an EGFP reporter vector: the reporter vector (Inovogen Tech. Co., Beijing, China) with pLV-EGFP-N as the backbone gene encodes the rG1 site of the PBX1 5′UTR sequence. By using the Strata gene rapid change site-directed mutagenesis kit, point mutation is performed on the rG1 site.
Given that G4s in the promoter and transcript are involved in the regulation of transcription and translation related processes, it is speculated that dG1 in the PBX1 promoter may regulate the transcription of PBX1, and rG1 in 5′UTR of the PBX1 transcript may regulate the transcription of PBX1. In addition, the luciferase reporter assay is first performed. The dG1 promoter sequence (designated as dG1-wt) and mutated dG1 promoter sequence (designated as dG1-mut) of PBX1 are cloned into pGL3 luciferase reporter vector. […] In addition, this embodiment further constructs an enhanced green fluorescent protein (EGFP) reporter gene system, to study the effect of rG1 on translation. The rG1 transcript sequence (designated as rG1-wt) and mutant rG1 transcript sequence (designated as rG1-mut) of PBX1 are fused to 5′UTR of EGFP, and the reporter gene vector is transfected into HEK293T cells. By confocal fluorescence experiments, the EGFP fluorescence intensity of rG1-WT is less than that of rG1-MUT, and PDS or TMPyP4 decreases the fluorescence intensity of rG1-WT in HEK293T cells (FIG. 3B). […]

B16-F10 cells [1] = assay: Cell scratch assay (migration), B16-F10; assay type: cell-based, mouse; conditions: PDS (2 μM), TMPyP4 (5 μM), 24 h
Procedure: (§2) Cell scratch assay: the cells are seeded in 12-well plate and grown for 24 hours to 80% confluency. The bare region is created by the tip across the diameter of the dish. After being treated with PDS (2 μM) and TMPyP4 (5 μM) for 24 h, the cells are washed with PBS and photographed under the microscope (Leica, Germany) to evaluate cell migration. Six micrographs are taken for each person.

A375 cells = assay: Cell scratch assay (migration), A375; assay type: cell-based, human; conditions: PDS (2 μM), TMPyP4 (5 μM), 24 h
Procedure: as §2

[2] = system: patient-derived melanoma xenograft (PDX); assay: PDX model of melanoma in NCG mice; assay type: in vivo; conditions: PDX; intravenous injection 20 mg/kg every two days for 21 days; vs PBX1 ASO scramble
Procedure: PDX model of melanoma: fresh tumor tissues are collected immediately after surgery, placed in RPMI 1640 medium containing penicillin/streptomycin (100 U/ml; 100 μg/ml), fungal zone (1 μg/ml) and Genta Mycin (50 μg/ml) (all from Gibco, USA) (4,5). According to the institutional review and the ethical guidelines for this study approved by the Ethics Committee of the Second Hospital of Jilin University, fresh tumor samples from patients suffering from melanoma are collected for transplantation with informed consent. The mice were kept and all procedures are performed under the approval and supervision of the Institutional Animal Care and Use Committee (IACUC) of the School of Public Health of Jilin University (Changchun, China). Necrotic tissues are excised before transplantation, and tumor tissues are minced to a size of 2×2×2 mm^3, and implanted subcutaneously in the flank of 6-week-old NCG male mice to generate first-generation (F1) PDX mice. Successfully transplanted tumor models are passaged and stored using standard methods. H&E staining is used to evaluate the morphology of patient tumor specimens and xenografts of established PDX models. Treatment with ASO Scr or ASO (intravenous injection, 20 mg/kg) is initiated when the tumor volume of the mice reached 220-280 mm^3. Tumor growth and body weight measurements are performed. Tumors are dissected at the end of treatment for further processing for RNA, protein and histological analysis.
Control:mG*mT*mC*mC*mA*mC*mA*mA*mA*mC*mA*mC*mA*mA*mC*mT*mC* mC*mT*mG*). […] This example also establishes short-term cultures of patient-derived melanoma xenograft (PDX)-derived tumor cells (PDCs) (FIG. 5D). […] To further expand the analysis, this embodiment establishes the PDX model of melanoma, and […] is administered intravenously (intravenous injection) every two days for 21 days.

B16-F10 cells [3] = assay: In vivo tumor metastasis assay, B16-F10 tail vein injection; set-up: species or system mice; conditions: B16-F10 tail vein; PDS 5 mg/kg twice a day, 16 consecutive days
Procedure: In vivo tumor metastasis assay: 2×10^5 B16-F10 cells are injected into the tail vein of tail vein tumor. According to solutions formulated by the NCI Animal Care and Use Committee, metastatic endpoints are determined for each experiment by maximal primary tumor burden and/or appearance of moribund mice in all treatment groups. PDS (5 mg/kg) is administered twice a day, for 16 consecutive days.
as §1

Question: With `NCCOc1cc(C(=O)Nc2cc(OCCN)c3ccccc3n2)nc(C(=O)Nc2cc(OCCN)c3ccccc3n2)c1` [PDS, Pyridostatin] as the molecule, how does the “thermal stability of rG1” value (rG1) read?
Answer: remarkably enhance

Question: And the “growth of xenograft tumors” value (A375 melanoma cells; A375 subcutaneous, nude mice, treatment 21 days once every two days)?
Answer: remarkably inhibits

Question: What about the “expression of PBX1 in xenograft tumors” value (A375 melanoma cells; qRT-PCR and IHC staining) of the same molecule?
Answer: downregulating

Question: And the “EGFP fluorescence intensity of rG1-WT” value (PBX1 rG1)?
Answer: decreases

Question: What about the migration (B16-F10 cells [1]) of the same molecule?
Answer: inhibit

Question: And the migration (A375 cells)?
Answer: inhibit

Question: What about the tumor growth [2] of the same molecule?
Answer: inhibits

Question: And the “metastasis of xenograft tumors (lung)” value (B16-F10 cells [3])?
Answer: remarkably inhibits

Question: How did the “thermal stability of rG1” value (rG1) turn out when `C[n+]1ccc(-c2c3nc(c(-c4cc[n+](C)cc4)c4ccc([nH]4)c(-c4cc[n+](C)cc4)c4ccc([nH]4)c(-c4cc[n+](C)cc4)c4nc2C=C4)C=C3)cc1` [TMPyP4] was run?
Answer: remarkably enhance

Question: What about the “EGFP fluorescence intensity of rG1-WT” value (PBX1 rG1) of the same molecule?
Answer: decreases

Question: What about the migration (B16-F10 cells [1]) of the same molecule?
Answer: inhibit

Question: And the migration (A375 cells)?
Answer: inhibit
